ChEMBL document CHEMBL4138210, “Synthesis and biological evaluation of some novel diastereoselective benzothiazole β-lactam conjugates” (Eur J Med Chem, 2018)
≈ marks a conversion by molar mass, not a printed value.

Key:
[1] = system: Escherichia coli; experiment: Antimicrobial activity against Escherichia coli ATCC […] after 24 to 48 hrs by broth serial dilution method; format: functional
[2] = system: Pseudomonas aeruginosa; experiment: Antimicrobial activity against Pseudomonas aeruginosa PAO1 after 24 to 48 hrs by broth serial dilution method; format: functional
[3] = system: Staphylococcus aureus; experiment: Antimicrobial activity against Staphylococcus aureus ATCC 25923 after 24 to 48 hrs by broth serial dilution method; format: functional
[4] = system: Plasmodium falciparum; experiment: Antimalarial activity against Plasmodium falciparum K1; format: functional, organism-based
[5] = Cytotoxicity against human HepG2 cells assessed as cell viability after 72 hrs by MTT assay relative to control; format: cell-based; set-up: concentration or dose not given beside the values; conditions: read-out: Activity
[6] = Hemolytic activity against human RBC at 250 uM after 1 hr relative to control; format: ADME, cell-based, Erythrocyte; conditions: red blood cells (erythrocytes), read-out: Activity
[7] = Plasmodium falciparum, K1, read-out: IC50

Structure (SMILES)	MIC [1]	MIC [2]	MIC [3]	IC50 [4, 7]	viability at 72 h [5]	hemolysis at 1 h, 250 µM [6]	IC50 [4]
CCOc1ccc(N2C(=O)[C@H](Oc3ccc(-c4nc5ccccc5s4)cc3)[C@@H]2c2ccc([N+](=O)[O-])cc2)cc1	> 200 µg/mL	> 200 µg/mL	215 µg/mL (≈ 400 µM)	11.8 µM	74.8%	2.29%	
COc1ccc(N2C(=O)[C@H](Oc3ccc(-c4nc5ccccc5s4)cc3)[C@@H]2c2c3ccccc3cc3ccccc23)cc1	> 200 µg/mL	> 200 µg/mL	231 µg/mL (≈ 399 µM)			0.89%	Nd(Insoluble)
COc1ccc(N2C(=O)[C@H](Oc3ccc(-c4nc5ccccc5s4)cc3)[C@@H]2c2ccc(Cl)cc2)cc1	> 200 µg/mL	> 200 µg/mL	205 µg/mL (≈ 400 µM)	40.7 µM		0.93%	
Cc1ccc(N2C(=O)[C@H](Oc3cccc(-c4nc5ccccc5s4)c3)[C@@H]2c2ccc(Cl)cc2)cc1	> 200 µg/mL	> 200 µg/mL	199 µg/mL (≈ 400 µM)	76.7 µM		1.13%	
COc1ccc(N2C(=O)[C@H](Oc3ccc(-c4nc5ccccc5s4)cc3)[C@@H]2c2cccc([N+](=O)[O-])c2)cc1	> 200 µg/mL	> 200 µg/mL	26 µg/mL (≈ 49.7 µM)	17.7 µM	62.8%	1.02%	
COc1ccc(N2C(=O)[C@H](Oc3ccc(-c4nc5ccccc5s4)cc3)[C@@H]2c2ccc(OC)c(OC)c2)cc1	> 200 µg/mL	> 200 µg/mL	215 µg/mL (≈ 399 µM)	9.5 µM	70.1%	0.82%	
CC(C)c1ccc([C@H]2[C@@H](Oc3ccc(-c4nc5ccccc5s4)cc3)C(=O)N2c2ccc(N(C)C)cc2)cc1	> 200 µg/mL	> 200 µg/mL	107 µg/mL (≈ 200 µM)	> 125 µM		1.03%	
COc1ccc(N2C(=O)[C@H](Oc3cccc(-c4nc5ccccc5s4)c3)[C@@H]2c2ccc([N+](=O)[O-])cc2)cc1	> 200 µg/mL	> 200 µg/mL	26 µg/mL (≈ 49.7 µM)	> 125 µM	99.5%	1.56%	
COc1ccc(N2C(=O)[C@H](Oc3cccc(-c4nc5ccccc5s4)c3)[C@@H]2c2ccc(Cl)cc2)cc1	> 200 µg/mL	> 200 µg/mL	205 µg/mL (≈ 400 µM)	20.4 µM		2.8%	
Cc1ccc(N2C(=O)[C@H](Oc3ccc(-c4nc5ccccc5s4)cc3)[C@@H]2c2ccc(Cl)cc2)cc1	> 200 µg/mL	> 200 µg/mL	199 µg/mL (≈ 400 µM)	31.1 µM		1.16%	
COc1ccc(N2C(=O)[C@H](Oc3ccc(-c4nc5ccccc5s4)cc3)[C@@H]2c2ccc([N+](=O)[O-])cc2)cc1	> 200 µg/mL	> 200 µg/mL	26 µg/mL (≈ 49.7 µM)	10.4 µM	71.4%	1.11%	
O=C1[C@H](Oc2ccc(-c3nc4ccccc4s3)cc2)[C@H](/C=C/c2ccccc2)N1c1ccc(Cl)cc1	> 200 µg/mL	> 200 µg/mL	204 µg/mL (≈ 401 µM)	60.5 µM		2.18%	
O=C1[C@H](Oc2ccc(-c3nc4ccccc4s3)cc2)[C@H](c2ccc3ccccc3c2)N1c1ccccc1	> 200 µg/mL	> 200 µg/mL	30 µg/mL (≈ 60.2 µM)	16.3 µM	58%	0.87%	
CCOc1ccc(N2C(=O)[C@H](Oc3cccc(-c4nc5ccccc5s4)c3)[C@@H]2c2ccc([N+](=O)[O-])cc2)cc1	> 200 µg/mL	> 200 µg/mL	215 µg/mL (≈ 400 µM)	6 µM	101%	1.02%	
COc1cc(N2C(=O)[C@H](Oc3ccc(-c4nc5ccccc5s4)cc3)[C@@H]2c2ccc([N+](=O)[O-])cc2)cc(OC)c1OC	> 200 µg/mL	> 200 µg/mL	29 µg/mL (≈ 49.7 µM)		62.4%	1.09%	Nd(Insoluble)
Cc1ccc(N2C(=O)[C@H](Oc3ccc(-c4nc5ccccc5s4)cc3)[C@@H]2c2ccc([N+](=O)[O-])cc2)cc1	> 200 µg/mL	> 200 µg/mL	25 µg/mL (≈ 49.3 µM)	11.4 µM	80.7%	1.25%	
